Measurements taken from patent publication US9221756B2, “Pyrrole derivatives” (priority 2011, dated 2015).
Read-outs that look alike come from different tables or passages of the source.

How the values were obtained:
pneumolysin = pneumolysin (Streptococcus pneumoniae serotype 2, UniProt Q04IN8); assay: Inhibition of the haemolytic activity of pneumolysin (sheep erythrocytes); assay type: cell-based; conditions: class symbols of Table 1
[1] = Conversion of prodrug derivatives to active inhibitors in mouse plasma; assay type: in vitro ADME; conditions: 37° C., 10 μM start, prodrug remaining; for [ ] (μM) t0 min. Prodrug: 0 min; for [ ] (μM) t15 min. Prodrug: 15 min; for [ ] (μM) t30 min. Prodrug: 30 min; for [ ] (μM) t60 min. Prodrug: 60 min; for [ ] (μM) t120 min. Prodrug: 120 min
Protocol: (§1) The samples were then analysed by LC-MS/MS to obtain the amount of active compound appearing and prodrug derivative remaining over time. The mouse plasma assay system is considered to be a good model for human behaviour. Nevertheless data obtained in a human plasma assay system was obtained in some cases.
(§2) Prodrug derivatives were assessed in the mouse and human plasma stability assay at a concentration of 10 μM. Test compounds were diluted in DMSO to a final stock concentration of 10 mM. For the purpose of the assay, the stocks prepared were further diluted in DMSO to a concentration of 400 μM and […] were added to 195 μl of mouse or human plasma (pH 7.4) and then incubated at 37° C. The final concentration of DMSO in the plate was 2.5% (v/v). Reactions were terminated at 0, 15, 30, 60 and 120 min after incubation by adding 400 μl of acetonitrile containing 0.55 μM metoprolol and 1% (v/v) formic acid. The plate was then centrifuged at 3000 rpm, for 45 min, at 4° C. 80 μl of supernatant were transferred into a conical bottom 96 well glass coated plate. 40 μl of water were added prior to analysis for prodrug derivative and active species by LC-MS/MS. This assay was performed by a contract research organisation, Cyprotex Discovery Limited, UK, at the request of the inventors at Leicester.
(§3) (1) The active compound was quantified using a 6 point calibration curve prepared in deactivated mouse and human plasma. (2) The percentage of parent compound remaining at each time point relative to 0 min sample was calculated from LC-MS/MS peak area ratios (compound peak area/internal standard peak area). This percentage was then used to determine the concentration of the parent compound at each time point in reference to the starting concentration (10 μM) at time 0 min.

[2] = assay type: in vitro ADME; conditions: human plasma, 37° C., 10 μM start, prodrug remaining
Protocol: as §1, §2, §3

[3] = IC50, inhibition of pneumolysin-induced haemolysis of sheep erythrocytes
[4] = inhibition of pneumolysin-induced haemolysis of sheep erythrocytes, read-out: IC50

Chain of pneumolysin (Q04IN8 whole entry): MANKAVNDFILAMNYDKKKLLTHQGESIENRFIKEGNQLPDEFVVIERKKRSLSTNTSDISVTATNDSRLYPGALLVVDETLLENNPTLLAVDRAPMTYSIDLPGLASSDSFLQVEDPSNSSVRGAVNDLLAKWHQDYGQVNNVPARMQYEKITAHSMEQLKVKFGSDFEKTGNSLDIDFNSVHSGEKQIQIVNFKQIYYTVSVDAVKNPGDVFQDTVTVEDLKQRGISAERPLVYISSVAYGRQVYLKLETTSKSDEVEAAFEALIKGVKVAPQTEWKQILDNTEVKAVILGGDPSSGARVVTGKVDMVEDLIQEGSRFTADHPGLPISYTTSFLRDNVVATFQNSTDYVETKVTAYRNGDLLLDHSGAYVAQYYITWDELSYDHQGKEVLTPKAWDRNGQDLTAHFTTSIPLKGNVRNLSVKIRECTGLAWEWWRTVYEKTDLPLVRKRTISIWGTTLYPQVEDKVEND

CCOC(=O)c1c(OC(C)=O)c(OC(C)=O)c(C(=O)N(C)C)n1-c1ccc(OC)cc1 [UL1-044, 2-(dimethylcarbamoyl)-5-(ethoxycarbonyl)-1-(4-methoxyphenyl)-1H-pyrrole-3,4-diyl diacetate]
IC50 (pneumolysin; [3]): < 10 µM
[ ] (μM) t0 min. Prodrug [1]: 10 µM
[ ] (μM) t15 min. Prodrug [1]: 0 µM
[ ] (μM) t30 min. Prodrug [1]: 0 µM
[ ] (μM) t60 min. Prodrug [1]: 0 µM
[ ] (μM) t120 min. Prodrug [1]: 0 µM

CCOC(=O)c1c(OC(=O)N2CCC(N3CCCCC3)CC2)c(OC(=O)N2CCC(N3CCCCC3)CC2)c(C(=O)N(C)C)n1-c1ccc(OC)cc1 [UL1-065, 2-(dimethylcarbamoyl)-5-(ethoxycarbonyl)-1-(4-methoxyphenyl)-1H-pyrrole-3,4-diyl bis([1,4′-bipiperidine]-1′-carboxylate)]
IC50 (pneumolysin; [4]): > 60 µM
[ ] (μM) t0 min. Prodrug [1]: 10 µM
[ ] (μM) t15 min. Prodrug [1]: 4.21 µM
[ ] (μM) t30 min. Prodrug [1]: 3.72 µM
[ ] (μM) t60 min. Prodrug [1]: 2.57 µM
[ ] (μM) t120 min. Prodrug [1]: 1.14 µM

CCOC(=O)c1c(OC(=O)CCOCCOC)c(OC(=O)CCOCCOC)c(C(=O)N(C)C)n1-c1ccc(OC)cc1 [UL1-105, 2-(dimethylcarbamoyl)-5-(ethoxycarbonyl)-1-(4-methoxyphenyl)-1H-pyrrole-3,4-diyl bis(3-(2-methoxyethoxy)propanoate)]
IC50 (pneumolysin; [3]): < 10 µM
[ ] (μM) t0 min. Prodrug [1]: 10 µM
[ ] (μM) t15 min. Prodrug [1]: 0 µM
[ ] (μM) t30 min. Prodrug [1]: 0 µM
[ ] (μM) t60 min. Prodrug [1]: 0 µM
[ ] (μM) t120 min. Prodrug [1]: 0 µM

CCOC(=O)c1c(OC(=O)C(C)C)c(OC(=O)C(C)C)c(C(=O)N(C)C)n1-c1ccc(OC)cc1 [UL1-067, 2-(dimethylcarbamoyl)-5-(ethoxycarbonyl)-1-(4-methoxyphenyl)-1H-pyrrole-3,4-diyl bis(2-methylpropanoate)]
IC50 (pneumolysin; [3]): 20 to 60 µM
[ ] (μM) t0 min. Prodrug [1]: 10 µM
[ ] (μM) t15 min. Prodrug [1]: 0 µM
[ ] (μM) t30 min. Prodrug [1]: 0 µM
[ ] (μM) t60 min. Prodrug [1]: 0 µM
[ ] (μM) t120 min. Prodrug [1]: 0 µM

CCOC(=O)c1c(OCOP(=O)(O)O)c(O)c(C(=O)N(C)C)n1-c1ccc(OC)cc1 [UL1-115, ethyl 5-(dimethylcarbamoyl)-4-hydroxy-1-(4-methoxyphenyl)-3-((phosphonooxy)methoxy)-1H-pyrrole-2-carboxylate]
IC50 (pneumolysin; [3]): 20 to 60 µM
[ ] (μM) t0 min. Prodrug [1]: 10 µM
[ ] (μM) t15 min. Prodrug [1]: 7.56 µM
[ ] (μM) t30 min. Prodrug [1]: 4.04 µM
[ ] (μM) t60 min. Prodrug [1]: 1.54 µM
[ ] (μM) t120 min. Prodrug [1]: 0.38 µM
[ ] (μM) t0 min. Prodrug (Human) ([2]; 0 min): 10 µM
[ ] (μM) t15 min. Prodrug (Human) ([2]; 15 min): 10.8 µM
[ ] (μM) t30 min. Prodrug (Human) ([2]; 30 min): 9.41 µM
[ ] (μM) t60 min. Prodrug (Human) ([2]; 60 min): 6.69 µM
[ ] (μM) t120 min. Prodrug (Human) ([2]; 120 min): 2.98 µM

CCOC(=O)c1c(OP(=O)(OCC)OCC)c(O)c(C(=O)N(C)C)n1-c1ccc(OC)cc1 [UL1-094, ethyl 3-((diethoxyphosphoryl)oxy)-5-(dimethylcarbamoyl)-4-hydroxy-1-(4-methoxyphenyl)-1H-pyrrole-2-carboxylate]
IC50 (pneumolysin; [4]): 20 to 60 µM
[ ] (μM) t0 min. Prodrug [1]: 10 µM
[ ] (μM) t15 min. Prodrug [1]: 9.99 µM
[ ] (μM) t30 min. Prodrug [1]: 9.22 µM
[ ] (μM) t60 min. Prodrug [1]: 8.78 µM
[ ] (μM) t120 min. Prodrug [1]: 8.49 µM

CCOC(=O)c1c(O)c(OC(=O)N(C)C)c(C(=O)N(C)C)n1-c1ccc(OC)cc1 [UL1-066, ethyl 5-(dimethylcarbamoyl)-4-((dimethylcarbamoyl)oxy)-3-hydroxy-1-(4-methoxyphenyl)-1H-pyrrole-2-carboxylate]
IC50 (pneumolysin; [4]): < 10 µM
[ ] (μM) t0 min. Prodrug [1]: 10 µM
[ ] (μM) t15 min. Prodrug [1]: 9.90 µM
[ ] (μM) t30 min. Prodrug [1]: 10.00 µM
[ ] (μM) t60 min. Prodrug [1]: 9.78 µM
[ ] (μM) t120 min. Prodrug [1]: 9.50 µM

CCOC(=O)c1c(OC(=O)N(C)C)c(OC(=O)N(C)C)c(C(=O)N(C)C)n1-c1ccc(OC)cc1 [UL1-063, ethyl 5-(dimethylcarbamoyl)-3,4-bis((dimethylcarbamoyl)oxy)-1-(4-methoxyphenyl)-1H-pyrrole-2-carboxylate]
IC50 (pneumolysin; [4]): > 60 µM
[ ] (μM) t0 min. Prodrug [1]: 10 µM
[ ] (μM) t15 min. Prodrug [1]: 10 µM
[ ] (μM) t30 min. Prodrug [1]: 9.20 µM
[ ] (μM) t60 min. Prodrug [1]: 9.40 µM
[ ] (μM) t120 min. Prodrug [1]: 8.50 µM

CCOC(=O)c1c(O)c(OC(=O)N2CCC(N3CCCCC3)CC2)c(C(=O)N(C)C)n1-c1ccc(OC)cc1 [UL1-071, 2-(dimethylcarbamoyl)-5-(ethoxycarbonyl)-4-hydroxy-1-(4-methoxyphenyl)-1H-pyrrol-3-yl [1,4′-bipiperidine]-1′-carboxylate]
IC50 (pneumolysin; [4]): 20 to 60 µM
[ ] (μM) t0 min. Prodrug [1]: 10 µM
[ ] (μM) t15 min. Prodrug [1]: 9.50 µM
[ ] (μM) t30 min. Prodrug [1]: 9.00 µM
[ ] (μM) t60 min. Prodrug [1]: 8.72 µM
[ ] (μM) t120 min. Prodrug [1]: 7.39 µM

CCOC(=O)c1c(OP(=O)(OCC)OCC)c(OP(=O)(OCC)OCC)c(C(=O)N(C)C)n1-c1ccc(OC)cc1 [UL1-092, ethyl 3,4-bis((diethoxyphosphoryl)oxy)-5-(dimethylcarbamoyl)-1-(4-methoxyphenyl)-1H-pyrrole-2-carboxylate]
IC50 (pneumolysin; [4]): > 60 µM
[ ] (μM) t0 min. Prodrug [1]: 10 µM
[ ] (μM) t15 min. Prodrug [1]: 5.12 µM
[ ] (μM) t30 min. Prodrug [1]: 4.67 µM
[ ] (μM) t60 min. Prodrug [1]: 4.59 µM
[ ] (μM) t120 min. Prodrug [1]: 3.70 µM

CCOC(=O)c1c(O)c(OS(N)(=O)=O)c(C(=O)N(C)C)n1-c1ccc(OC)cc1 [UL1-069, ethyl 5-(dimethylcarbamoyl)-3-hydroxy-1-(4-methoxyphenyl)-4-(sulfamoyloxy)-1H-pyrrole-2-carboxylate]
IC50 (pneumolysin; [3]): < 10 µM
[ ] (μM) t0 min. Prodrug [1]: 10 µM
[ ] (μM) t15 min. Prodrug [1]: 9.90 µM
[ ] (μM) t30 min. Prodrug [1]: 9.70 µM
[ ] (μM) t60 min. Prodrug [1]: 9.60 µM
[ ] (μM) t120 min. Prodrug [1]: 9.90 µM

CCOC(=O)c1c(OC(=O)C(C)(C)COCCCOP(=O)(O)O)c(OC(=O)C(C)(C)COCCCOP(=O)(O)O)c(C(=O)N(C)C)n1-c1ccc(OC)cc1 [UL1-118, 2-(dimethylcarbamoyl)-5-(ethoxycarbonyl)-1-(4-methoxyphenyl)-1H-pyrrole-3,4-diyl bis(2,2-dimethyl-3-(3-(phosphonooxy)propoxy)propanoate)]
IC50 (pneumolysin; [3]): < 10 µM
[ ] (μM) t0 min. Prodrug [1]: 10 µM
[ ] (μM) t15 min. Prodrug [1]: 6.04 µM
[ ] (μM) t30 min. Prodrug [1]: 4.00 µM
[ ] (μM) t60 min. Prodrug [1]: 1.68 µM
[ ] (μM) t120 min. Prodrug [1]: 0.23 µM

CCOC(=O)c1c(OC(=O)C(C)(C)C)c(OC(=O)C(C)(C)C)c(C(=O)N(C)C)n1-c1ccc(OC)cc1 [UL1-068, 2-(dimethylcarbamoyl)-5-(ethoxycarbonyl)-1-(4-methoxyphenyl)-1H-pyrrole-3,4-diyl bis(2,2-dimethylpropanoate)]
IC50 (pneumolysin; inhibition of pneumolysin-induced haemolysis of sheep erythrocytes): > 60 µM
[ ] (μM) t0 min. Prodrug [1]: 10 µM
[ ] (μM) t15 min. Prodrug [1]: 3.02 µM
[ ] (μM) t30 min. Prodrug [1]: 1.00 µM
[ ] (μM) t60 min. Prodrug [1]: 0.136 µM
[ ] (μM) t120 min. Prodrug [1]: 0 µM

CCOC(=O)c1c(O)c(O)c(C(=O)OCC)n1-c1ccc(C(C)(C)C)cc1 [UL2-032, diethyl 1-(4-(tert-butyl)phenyl)-3,4-dihydroxy-1H-pyrrole-2,5-dicarboxylate]
IC50 (pneumolysin; [3]): < 10 µM

CCOC(=O)c1c(OC(=O)N2CCN(C)CC2)c(OC(=O)N2CCN(C)CC2)c(C(=O)N(C)C)n1-c1ccc(OC)cc1 [UL1-064, 2-(dimethylcarbamoyl)-5-(ethoxycarbonyl)-1-(4-methoxyphenyl)-1H-pyrrole-3,4-diyl bis(4-methylpiperazine-1-carboxylate)]
IC50 (pneumolysin; [4]): > 60 µM
[ ] (μM) t0 min. Prodrug [1]: 10 µM
[ ] (μM) t15 min. Prodrug [1]: 3.10 µM
[ ] (μM) t30 min. Prodrug [1]: 7.00 µM
[ ] (μM) t60 min. Prodrug [1]: 5.00 µM
[ ] (μM) t120 min. Prodrug [1]: 2.20 µM

CCOC(=O)c1c(O)c(O)c(C(=O)OCC)n1-c1cc(OC)c(OC)c(OC)c1 [UL2-014, diethyl 3,4-dihydroxy-1-(3,4,5-trimethoxyphenyl)-1H-pyrrole-2,5-dicarboxylate]
IC50 (pneumolysin; [3]): < 10 µM

CCOC(=O)c1c(O)c(O)c(C(=O)NC)n1-c1ccc(OC)cc1 [UL1-099, ethyl 3,4-dihydroxy-1-(4-methoxyphenyl)-5-(methylcarbamoyl)-1H-pyrrole-2-carboxylate]
IC50 (pneumolysin; [3]): < 10 µM
